The source of these data is patent publication US20060276520A1 (priority 2002, published 2006).

The structures appear in SMILES notation. Values joined by “and” are separate entries in the source; they are usually repeats but may differ in a detail not shown here. Equal entries are not always repeated.

One assay has as its target MDM2/P53 (Homo sapiens, UniProt Q00987). The assay can be described thus: biochemical.
The target of the next assay is APC2/APC11 (Homo sapiens, UniProt Q9NYG5+Q9UJX6). The assay can be described thus: biochemical.
Chain of APC2/APC11 (Q9UJX6 whole entry): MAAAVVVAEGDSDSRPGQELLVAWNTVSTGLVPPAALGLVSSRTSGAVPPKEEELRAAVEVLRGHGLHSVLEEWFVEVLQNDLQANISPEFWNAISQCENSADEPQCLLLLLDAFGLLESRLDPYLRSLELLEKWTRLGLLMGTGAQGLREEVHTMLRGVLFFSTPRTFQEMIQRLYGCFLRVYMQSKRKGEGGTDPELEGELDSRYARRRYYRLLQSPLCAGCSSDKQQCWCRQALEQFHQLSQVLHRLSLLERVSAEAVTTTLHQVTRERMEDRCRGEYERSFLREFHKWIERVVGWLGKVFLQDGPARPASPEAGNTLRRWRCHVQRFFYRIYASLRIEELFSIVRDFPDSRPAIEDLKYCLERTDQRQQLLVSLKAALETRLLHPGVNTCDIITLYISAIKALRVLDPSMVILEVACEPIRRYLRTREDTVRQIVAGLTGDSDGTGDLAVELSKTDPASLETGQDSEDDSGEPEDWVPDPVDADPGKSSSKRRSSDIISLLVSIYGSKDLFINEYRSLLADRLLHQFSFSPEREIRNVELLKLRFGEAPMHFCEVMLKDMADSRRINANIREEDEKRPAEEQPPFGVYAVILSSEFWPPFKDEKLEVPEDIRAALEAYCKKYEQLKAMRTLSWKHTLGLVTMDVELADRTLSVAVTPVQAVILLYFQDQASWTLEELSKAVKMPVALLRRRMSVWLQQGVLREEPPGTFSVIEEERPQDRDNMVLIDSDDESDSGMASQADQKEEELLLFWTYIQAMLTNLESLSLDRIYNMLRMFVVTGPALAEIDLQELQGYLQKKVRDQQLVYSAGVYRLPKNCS
Chain of APC2/APC11 (Q9NYG5 whole entry): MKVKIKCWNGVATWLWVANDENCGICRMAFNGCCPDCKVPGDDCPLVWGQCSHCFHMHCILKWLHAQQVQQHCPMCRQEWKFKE

Chain of MDM2/P53 (Q00987 whole entry): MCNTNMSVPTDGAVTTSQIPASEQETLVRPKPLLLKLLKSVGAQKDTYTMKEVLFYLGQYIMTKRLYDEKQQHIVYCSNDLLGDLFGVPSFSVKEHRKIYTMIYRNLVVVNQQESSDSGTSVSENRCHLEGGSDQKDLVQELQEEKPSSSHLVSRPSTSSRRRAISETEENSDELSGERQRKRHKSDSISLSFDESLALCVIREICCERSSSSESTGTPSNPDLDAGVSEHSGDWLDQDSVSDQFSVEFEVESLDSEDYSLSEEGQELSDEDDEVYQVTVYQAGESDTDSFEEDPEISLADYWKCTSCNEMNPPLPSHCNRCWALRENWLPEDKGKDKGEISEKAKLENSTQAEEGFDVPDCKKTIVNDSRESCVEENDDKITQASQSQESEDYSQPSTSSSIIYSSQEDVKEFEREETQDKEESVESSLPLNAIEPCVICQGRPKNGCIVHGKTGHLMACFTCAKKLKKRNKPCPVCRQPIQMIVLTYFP

Turning to `CN1C(=O)/C(=C/c2ccc(-c3ccc(S(N)(=O)=O)cc3)o2)SC1=S` [Compound 23, 4-{5-[(Z)-(3-methyl-4-oxo-2-thioxo-1,3-thiazolidin-5-ylidene)methyl]-2-furyl}benzenezulffonamide], the results for the IC50 on MDM2/P53 and against APC2/APC11 were 7.94 µM and 5.15 µM, respectively.
On the same counts, the results for `O=C(O)CCN1C(=O)/C(=C/c2ccc(-c3ccc(Br)cc3)o2)SC1=S` [Compound 25, 3-((5Z)-5-{[5-(4-bromophenyl)-2-furyl]methylene}-4-oxo-2-thioxo-1,3-thiazolidin-3-yl)propanoic acid] are 5.64 µM and 2.06 µM.
For `CN1C(=O)/C(=C\c2ccc(-c3ccc(Cl)cc3)o2)SC1=S` [Compound 29, (5E)-5-{[5-(4-chlorophenyl)-2-furyl]methylene}-3-methyl-2-thioxo-1,3-thiazolidin-4-one], in that order: 1.21 µM and 1.44 µM.
For the molecule `O=C1/C(=C/c2ccc(-c3cccc4ccccc34)o2)SC(=S)N1Cc1ccccc1` [Compound 30, (5Z)-3-benzyl-5-{[5-(1-nephthyl)-2-furyl]methylene}-2-thioxo-1,3-thiazolidin-4-one], the IC50 was determined as 2.32 µM at MDM2/P53 and 5.49 µM against APC2/APC11.
On the same counts, the results for `O=C(O)c1cccc(-c2ccc(/C=C3/SC(=S)N(c4cccc(Cl)c4)C3=O)o2)c1` [Compound 46, 3-(5-{(E)-[3-(3-chlorophenyl)-4-oxo-2-thioxo-1,3-thiazolidin-5-ylidene]methyl}-2-furyl)benzoic acid] are 4.92 µM and 0.91 µM.
In the case of `CN1C(=O)/C(=C\c2ccc(-c3cccc(Br)c3)o2)SC1=S` [Compound 50, (5E)-5-{[5-(3-bromophenyl)-2-furyl]methylene]-3-methyl-2-thioxo-1,3-thiazolidin-4-one], the IC50 on MDM2/P53 amounted to 2.69 µM; at APC2/APC11, 3.7 µM.
Regarding `Cc1c(N2C(=O)/C(=C\c3ccc(-c4ccc(Br)cc4)o3)SC2=S)c(=O)n(-c2ccccc2)n1C` [Compound 51, (5E)-5-{[5-(4-bromophenyl)-2-furyl]methylene}-3-(1,5-dimethyl-3-oxo-2-phenyl-2,3-dihydro-1H-pyrazol-4-yl)-2-thioxo-1,3-thiazolidin-4-one], the IC50 is 9.24 µM at MDM2/P53 and 12.1 µM against APC2/APC11.
Regarding `O=C1/C(=C\c2ccc(-c3cccc(C(F)(F)F)c3)o2)SC(=S)N1Cc1ccccc1` [Compound 54, (5E)-3-benzyl-2-thioxo-5-({5-[3-(trifluoromethyl)phenyl]-2-furyl}methylene)-1,3-thiazolidin-4-one], the figures for the IC50 at MDM2/P53 and at APC2/APC11 were 0.074 µM and 0.035 µM, respectively.
The molecule `C=CCN1C(=O)/C(=C\c2ccc(-c3cccc(C(F)(F)F)c3)o2)SC1=S` [Compound 63, (5E)-3-allyl-2-thioxo-5-({5-[3-(trifluoromethyl)phenyl]-2-furyl}methylene)-1,3-thiazolidin-4-one] had an IC50 against APC2/APC11 of 0.2 µM.
In the case of `O=C(O)CN1C(=O)/C(=C\c2ccc(-c3ccc(Cl)c(Cl)c3)o2)SC1=S` [Compound 82, ((5E)-5-{[5-(3,4-dichlorophenyl)-2-furyl]methylene}-4-oxo-2-thioxo-1,3-thiazolidin-3-yl)acetic acid], the figures for the IC50 against MDM2/P53 and on APC2/APC11 were 1.5 µM and 5 µM, respectively.
On the same counts, the results for `COc1ccc(N2C(=O)/C(=C\c3ccc(-c4ccc(Br)cc4)o3)SC2=S)cc1` [Compound 96, (5E)-5-{[5-(4-bromophenyl)-2-furyl]methylene}-3-(4-methoxyphenyl)-2-thioxo-1,3-thiazolidin-4-one] are 0.56 µM and 10 µM.
`O=C(O)CN1C(=O)/C(=C\c2ccc(-c3ccc(Cl)cc3)o2)SC1=S` [Compound 145, ((5E)-5-{[5-(4-chlorophenyl)-2-furyl]methylene}-4-oxo-2-thioxo-1,3-thiazolidin-3-yl)acetic acid] had an IC50 on APC2/APC11 of 10 µM.
For the molecule `O=C(O)CN1C(=O)/C(=C\c2ccc(-c3cccc(C(F)(F)F)c3)o2)SC1=S` [Compound 146, [(5E)-4-oxo-2-thioxo-5-({5-[3-(trifluoromethyl)phenyl]-2-furyl]methylene)-1,3-thiazolidin-3-yl]acetic acid], on APC2/APC11, half-maximal inhibition (IC50) was put at 10 µM. In other words, the double-digit micromolar range.
The same measure, in the same setting: to `O=C(O)c1cccc(-c2ccc(/C=C3\SC(=S)N(C4CCCCC4)C3=O)o2)c1` [Compound 176, 3-{5-[(Z)-(3-cyclohexyl-4-oxo-2-thioxo-1,3-thiazolidin-5-ylidene)methyl]-2-furyl}benzoic acid] belongs 0.4 µM and 0.7 µM; to `CN1C(=O)/C(=C\c2ccc(-c3cccc([N+](=O)[O-])c3)o2)SC1=S` [Compound 183, (5E)-3-methyl-5-{[5-(3-nitrophenyl)-2-furyl]methylene}-2-thioxo-1,3-thiazolidin-4-one], 0.1 µM.
The same measure, in the same setting: the value for `O=C1/C(=C/c2ccc(-c3ccc([N+](=O)[O-])cc3)o2)SC(=S)N1Cc1ccccc1` [Compound 199, (5Z)-3-benzyl-5-{[5-(4-nitrophenyl)-2-furyl]methylene}-2-thioxo-1,3-thiazolidin-4-one] was 0.1 µM.
On to `O=C1NC(=S)S/C1=C/c1ccc(-c2ccc(Cl)cc2)o1` [Compound 238, (5E)-5-{[5-(4-chlorophenyl)-2-furyl]methylene}-2-thioxo-1,3-thiazolidin-4-one], for which, on APC2/APC11, the IC50 stood at 5 µM.
On to `O=C1NC(=S)S/C1=C/c1ccc(-c2cc(Cl)ccc2Cl)o1` [Compound 270, (5E)-5-{[5-(2,5-dichlorophenyl)-2-furyl]methylene}-2-thioxo-1,3-thiazolidin-4-one], for which, at APC2/APC11, it took 3 µM to reach half-maximal inhibition (IC50).
As to `COc1ccc(CN2C(=O)/C(=C/c3ccc(-c4ccccc4Cl)o3)SC2=S)cc1` [Compound 274, (5Z)-5-{[5-(2-chlorophenyl)-2-furyl]methylene}-3-(4-methoxybenzyl)-2-thioxo-11,3-thiazolidin-4-one], the IC50 at MDM2/P53 was 1.18 µM; at APC2/APC11, 0.11 µM.
On the same counts, the results for `O=C1/C(=C/c2ccc(-c3ccccc3Cl)o2)SC(=S)N1CCc1cccs1` [Compound 275, (5Z)-5-{[5-(2-chlorophenyl)-2-furyl]methylene}-3-[2-(2-thienyl)ethyl]-2-thioxo-1,3-thiazolidin-4-one] are 1.16 µM and 0.32 µM.
Regarding `O=C1/C(=C/c2ccc(-c3ccccc3Cl)o2)SC(=S)N1Cc1ccco1` [Compound 280, (5Z)-5-{[5-(2-chlorophenyl)-2-furyl]methylene}-3-(2-furylmethyl)-2-thioxo-1,3-thiazolidin-4-one], the 50% inhibitory concentration (IC50) against MDM2/P53 was 0.25 µM; on APC2/APC11, 0.56 µM.
For `CC(C)(C)OC(=O)[C@H](Cc1ccccc1)NC(=O)CN1C(=O)/C(=C/c2ccc(-c3ccccc3Cl)o2)SC1=S` [Compound 301, tert-butyl N-[((5Z)-5-{[5-(2-chlorophenyl)-2-furyl]methylene}-4-oxo-2-thioxo-1,3-thiazolidin-3-yl)acetyl]phenylalaninate], in that order: 0.93 µM and 0.41 µM.
At MDM2/P53, `C[C@H](NC(=O)CN1C(=O)/C(=C/c2ccc(-c3ccccc3Cl)o2)SC1=S)C(=O)OC(C)(C)C` [Compound 302, tert-butyl N-[((5Z)-5-{[5-(2-chlorophenyl)-2-furyl]methylene}-4-oxo-2-thioxo-1,3-thiazolidin-3-yl)acetyl]alaninate] came in with a concentration for half-maximal inhibition (IC50) of 4.6 µM.
At MDM2/P53, `O=C1C(Cc2ccc(-c3ccccc3Cl)o2)SC(=S)N1Cc1ccc2c(c1)OCO2` (centres unmarked) [Compound 305, 3-(1,3-benzodioxol-5-ylmethyl)-5-{[5-(2-chlorophenyl)-2-furyl]methyl}-2-thioxo-1,3-thiazolidin-4-one] registered an IC50 of 10.8 µM.

A word on the IC50: it is the concentration that inhibits the measured activity by half. A low value points to greater potency.
